Laboratory results as given in ChEMBL document CHEMBL1156829 (Proc Natl Acad Sci U S A, 2008).

How the values were obtained:
Plasmodium falciparum [1] = assay: NOVARTIS: Inhibition of Plasmodium falciparum 3D7 (drug-susceptible) proliferation in erythrocyte-based infection assay; format: functional, organism-based; conditions: Plasmodium falciparum, 3D7
Plasmodium falciparum [2] = assay: NOVARTIS: Inhibition of Plasmodium falciparum W2 (drug-resistant) proliferation in erythrocyte-based infection assay; format: functional, organism-based; conditions: Plasmodium falciparum, W2; read-out: EC50
[3] = NOVARTIS: Cytotoxicity against human hepatocellular carcinoma cell line (Huh7); format: toxicity, cell-based, Huh-7; conditions: Huh7 cells (hepatocellular carcinoma cell line)

SMILES | EC50 (Plasmodium falciparum [1]) [nM] | EC50 (Plasmodium falciparum [2]) [nM] | CC50 [3] [nM]
CCN1CCN(c2cc(C)c3cc(NC(=O)c4cc(=O)c5ccccc5o4)ccc3n2)CC1 | 498 | 386 | > 10000
O=C1c2ccccc2-c2nnc(-c3ccccc3)cc21 | 268 | 392 | > 10000
c1ccc(C2CC(C3CC(c4ccccc4)OC(c4ccccc4)C3)CC(c3ccccc3)O2)cc1 (centres undefined) | 1240 | 394 | > 10000
CN(C)CCNc1cc(-c2ccccc2)nc2ccccc12 | 692 | 819 | 21200
O=C(CCl)NCCOc1ccc(Cl)cc1Cl | 538 | 511 | 13000
CC(=NNC(=S)NN)c1ccccn1 | 1370 | 386 | > 10000
CCOc1ccc2[nH]c(=O)c(CN(CCc3ccccc3)C(=O)c3cnccn3)cc2c1 | > 428 | > 397 | > 10000
COc1ccc(Nc2nc(NN=Cc3cccc(I)c3)nc(Nc3ccc([N+](=O)[O-])cc3)n2)cc1 | 305 | 454 | > 11700
O=C(Nc1ccc(C2=NCCN2)cc1)c1cccc2c(C(=O)Nc3ccc(C4=NCCN4)cc3)cccc12 | 83.9 | 397 | > 10000
COc1cc(NC(=O)Cc2ccccc2OC)cc(OC)c1 | > 1690 | > 386 | > 10000
Cn1nc(C(F)(F)F)c(C(=O)Nc2cccc(C(F)(F)F)c2)c1SCc1ccc(Cl)cc1 | 1010 | 1200 | 31300
CCc1ccc2[nH]c(=O)c(CN(CCN(CC)CC)C(=S)NCCCN(C)C)cc2c1 | 2270 | 1530 | 38200
COc1cc(CNCCCN(C)C)ccc1OCc1ccc(F)cc1Cl | 92 | 159 | 4160
CO[C@H]1O[C@@H]2COC(c3ccccc3)O[C@H]2[C@@H](O)[C@@H]1OCc1ccccc1 (some centres undefined) | 376 | 555 | > 13800
O=C(N/C(=C/C=C\c1ccccc1)C(=O)N1CCOCC1)c1ccc(Br)cc1 | > 1300 | 401 | > 10000
CCc1ccc(NC(=O)c2sc3nc(N)c(C#N)c(-c4ccc(OC)c(OC)c4)c3c2N)cc1 | 5810 | 3990 | > 100000
CCCCCc1ccc(OCCCC[n+]2cccc(C)c2C)c(CCCCC)c1 | 215 | 120 | 3000
CCOc1ccc2nc(C)cc(Nc3ccc(N(C)C)cc3)c2c1 | 344 | 662 | 16600
CC(=O)N1CCN(c2ccc(NC(=S)NC(=O)c3ccc(C)cc3)cc2)CC1 | > 12500 | 3790 | > 95700
O=C(NCCc1ccccc1)c1cnc(NCCC2=CCCCC2)nc1NCC1CCCCC1 | 436 | 395 | > 10000
c1ccc(Nc2ccnc(Nc3ccccc3)n2)cc1 | 804 | 1930 | > 49000
CN1C[C@@H](CSc2ccccn2)C=C2c3cccc4[nH]cc(c34)C[C@H]21 | 226 | 393 | > 10000
Clc1ccc(-n2cc(-c3ccccc3)c3c(N4CCC(Cc5ccccc5)CC4)ncnc32)cc1 | > 10000 | > 3990 | > 100000

SMILES | EC50 (Plasmodium falciparum [1]) [nM] | EC50 (Plasmodium falciparum [2]) [nM] | CC50 [3] [nM]
Cc1cc(Nc2cccc3ccccc23)nc(Nc2cccc3ccccc23)n1 | 274 | 395 | > 10000
CCOC(=O)COC1=C(CCCCC2CCCCC2)C(=O)c2ccccc2C1=O | 58.1 | 1220 | 31000
CC(C)(C)c1ccc2[nH]c3c(c2c1)CCCC3=NO | 5020 | 831 | 20900
CC(C)CCn1nc(C(=O)N2CCOCC2)c2c1CCN(C(=O)c1ccc(N3CCOCC3)cc1)C2 | > 11800 | 3960 | > 100000
Cc1ccccc1[S+]([O-])Cc1ccc(C(=O)N2CCN(c3ccccn3)CC2)o1 (centres undefined) | > 7130 | 1660 | > 42000
Cc1cc(S(=O)(=O)NC(Cc2ccc([N+](=O)[O-])cc2)C(=O)O)c(Cl)cc1Cl (centres undefined) | > 1250 | 391 | > 10000
COC(=O)c1ccc2c(c1)C(=O)c1ccccc1C2C1c2ccccc2C(=O)c2cc(C(=O)OC)ccc21 (centres undefined) | 856 | 397 | > 10000
CCN(CC)CCCN(Cc1cc2cc(OC)ccc2[nH]c1=O)C(=S)Nc1cccc(Cl)c1 | 798 | 809 | 20500
O=C(NNc1nc2ccccc2nc1Cl)Nc1ccc(Cl)cc1 | 218 | 306 | 7760
O=C1C(Nc2ccccc2)=C(N2CCCCC2)C(=O)c2ccccc21 | 383 | 590 | 15000
CCC(=O)N1CCc2cc(S(=O)(=O)N3CCN(c4cccc(C(F)(F)F)c4)CC3)ccc21 | 574 | 398 | > 10000
O=C1C2C(C(=O)N1c1ccc(Br)cc1)C1C=CC2C12CC2 (centres undefined) | > 12500 | 3980 | > 100000
CC(C)(C)c1ccc(-c2c[n+](-c3ccccc3)c3n2CCCS3)cc1 | 221 | 313 | 7870
CN(CCCNc1ccnc2cc(Cl)ccc12)C(=O)c1ccccc1 | 723 | 391 | > 10000
O=C1CN(C(=O)CCC2CCCCC2)C(c2ccccc2)c2cc(F)ccc2N1 (centres undefined) | 1070 | 1300 | 33200
CCCC(C(=O)NC(C)(C)C)N1C(=O)c2cc(NC(C)=O)ccc2NC(=O)[C@@H]1c1ccccc1 (some centres undefined) | > 65.6 | > 790 | 5450
Cc1ccc(CN2CCN(Cc3ccccc3)CC2)o1 | > 1250 | 1300 | > 8970
CCc1cccc(NS(=O)(=O)c2ccc3[nH]c(=O)c(=O)[nH]c3c2)c1 | > 1040 | > 1450 | > 10000
Cc1ccc(Nc2nc(NN=Cc3ccc(-c4ccc([N+](=O)[O-])cc4)o3)nc(Nc3ccccc3)n2)c(C)c1 | > 824 | 387 | > 10000
CC1CN(C(=O)C(Cc2c[nH]c3ccccc23)NC(=O)C(c2ccccc2)c2ccccc2)CCN1C(=O)NCc1ccccc1 (centres undefined) | > 1250 | > 391 | > 10000
CCOc1ccc(S(=O)(=O)c2cn(Cc3ccccc3C)c3ccc(OC)cc3c2=O)cc1 | 6270 | 3860 | > 100000
Cc1ccc(C(=O)Nc2ccc(-c3nc4cc5ccccc5cc4[nH]3)cc2)cc1[N+](=O)[O-] | 4300 | 3980 | > 100000
CCc1cc2c(cc1-c1csc(NC(=N)N)n1)C(C)(C)CCC2(C)C | 733 | 961 | 24600

SMILES | EC50 (Plasmodium falciparum [1]) [nM] | EC50 (Plasmodium falciparum [2]) [nM] | CC50 [3] [nM]
Cc1cc(N2CCN(C/C=C/c3ccccc3)CC2)n2c(nc3ccccc32)c1C#N | 415 | 395 | > 10000
CC(=O)N(C1=C(N2CCOCC2)C(=O)c2ccccc2C1=O)c1cccc(Cl)c1 | 214 | 187 | 4720
CCc1[nH]nc2c1C(Cc1ccccc1)C(C#N)=C(N)O2 (centres undefined) | > 1250 | 393 | > 10000
C[n+]1c(/C=C/c2ccc(Cl)c(Cl)c2)ccc2ccccc21 | 295 | 390 | > 10000
O=C(NCCc1ccc(Cl)cc1)C1CCCN(c2nnc(N3CCCC3=O)s2)C1 (centres undefined) | > 12500 | 3890 | > 100000
COc1ccc(-c2nc(-c3ccc4c(c3)-c3cc(-c5[nH]c(-c6ccc(OC)cc6)nc5-c5ccccc5)ccc3C4=O)c(-c3ccccc3)[nH]2)cc1 | 7300 | 3750 | 94500
Cc1cc(C)n(-c2ncc(-c3ccc([N+](=O)[O-])cc3)cn2)n1 | > 12500 | 3960 | > 100000
CSc1cccc(NC(=O)C2C3C=CC4(O3)C2C(=O)N(CCN2CCCCC2)C4C(=O)NC2CCCC(C)C2C)c1 (centres undefined) | > 11100 | 1900 | 48100
COc1cccc(N2CCN(CCNCCc3ccccc3)[C@@H](Cc3ccc(O)cc3)C2)c1 | 564 | 397 | > 10000
CC1CC2(C)Oc3ccccc3CC2C(C)C1CNCCCN(C)C (centres undefined) | 241 | 192 | 4790
Cc1nc2c(=O)n(C)c(=O)nc-2n(C)n1 | 593 | 398 | > 10000
O=S(=O)(c1ccc(Br)s1)N1CCN(c2ccccc2)CC1 | 411 | 400 | > 10000
OCc1nc2ccccc2n1Cc1ccccc1F | > 1640 | 1450 | > 10000
CCC(Nc1ccc(OC)cc1)=C1C(=O)CC(C)(C)CC1=O | > 4140 | 3950 | > 100000
OCCCNc1cc(-c2ccccn2)nc(-c2ccccn2)n1 | > 908 | 401 | > 10000
COCCCNC(=O)c1c(C)nc2scc(C)n12 | > 1080 | > 1450 | > 10000
CCCCCCN(C(=O)COc1ccccc1)C(CC)c1nc2ccccc2c(=O)n1-c1cccc(Cl)c1 (centres undefined) | 2740 | 4010 | > 100000
CCc1ccc2[nH]c(=O)c(CN(CCO)C(=S)Nc3ccccc3CC)cc2c1 | 2620 | 1910 | 48000
CCCNC(=O)c1ccc(OC2CCN(CC(c3ccccc3)c3ccccc3)CC2)c(OC)c1 | 614 | 392 | > 10000
CC(C)(C)c1ccc(C2CC3=Nc4ccccc4N(C(=O)c4ccccc4Cl)C(c4ccc(F)cc4)C3=C(O)C2)cc1 (centres undefined) | 2630 | 3940 | > 100000
CCN(CC)CCCNC(=S)N(CCc1cccc(C)c1)Cc1cc2cc(OC)c(OC)cc2[nH]c1=O | 2430 | 747 | 18600
COC(=O)c1sc2nc(CN(C)CC(C)C)ccc2c1NC(=O)c1ccc(C)s1 | > 12500 | 4010 | > 100000
